Results published in US10138214B2, “Substituted triazoles and methods relating thereto” (Neurocrine Biosciences, Inc., priority 2015, dated 2018).

Key:
[1] = test system: hippocampal-kindled focal seizures; test: Hippocampal-kindled rat test (focal seizures); assay type: in vivo, rats; conditions: i.p. injection
Experimental: Electrodes are implanted into the hippocampus of anesthetized rats, which are then allowed to recover for 1 week. Following the rapid kindling protocol (Lothman et al., Brain Res., 1994. 649:71-84), the rats are stimulated with […] for 10 s, 50 Hz, every 30 min for 6 h on alternate days until they are fully kindled (4-5 stimulus days). After 1 week of rest, the animals are given the same electrical stimulus, which served as a baseline. The animals are pretreated with the test compound (by i.p. injection) and then tested at various intervals. At each time point, the behavioral seizure score and after-discharge duration are recorded. The behavioral seizure scores are scored according to the following criteria (Racine, Electroencephalogr Clin Neurophysiol, 1972. 32(3):281-94): stage 1—mouth and facial clonus; stage 2—stage 1 plus head nodding; stage 3—stage 2 plus forelimb clonus; stage 4—stage 3 plus rearing, and stage 5—stage 4 plus repeated rearing and falling. The after-discharge threshold (ADT) can also be measured in the kindled rat. The ADT is defined as the lowest current at which an after-discharge of at least 4 s is elicited. […] The initial stimulation is conducted at an intensity of 20 μA with 10 μA increments every 1-2 min until an after-discharge was elicited. Fifteen minutes after the predrug threshold determination, a single dose of the test substance is administered to 2 animals in a volume of 0.04 ml/10 g body weight. In this way, the animals serve as their own control. The individual rat ADT is then determined at varying times (i.e., 0.25, 1, 2 and 4 h) after drug administration.

[2] = test system: pilocarpine-induced convulsive status epilepticus; test: Pilocarpine rat model (initial qualitative efficacy screen); assay type: in vivo, Sprague Dawley rats; conditions: i.p., administered after seizure onset, mpk=mg/kg
Experimental: Compounds are assessed for their ability to halt pilocarpine-induced convulsive status epilepticus (SE). To identify doses of drug to be used in the SE testing, acute motor impairment is assessed following the intraperitoneal (i.p.) administration of doses starting at 100 and 300 mg/kg. Individual Sprague Dawley rats are evaluated for acute toxicity over several time points following administration of test compounds. The results obtained from this initial study determine whether any dose adjustments are required. The behavior of the animals is observed closely and recorded over a four hour period. Routinely, a minimum number of four rats, two per dose are employed in this acute screen.
To determine if the test substance can halt acute pilocarpine-induced status an initial qualitative efficacy screen is performed. A challenge dose of pilocarpine (50 mg/kg) is administered i.p. and animals observed until the first convulsive (e.g., Stage 3, 4, or 5) seizure (time zero). The seizure severity is determined using the Racine scale. At this point a minimally toxic dose of the candidate drug is administered to a group of 8 male albino Sprague Dawley rats (150-180 g) via the i.p. route of administration. Efficacy is defined by the ability of an investigational drug to halt the further expression of pilocarpine induced convulsive seizures (e.g., Stage 3, 4, or 5). […] In this test, the investigational drug is administered 30 minutes after the first observed convulsive seizure. This is a more severe test of a candidate's ability to halt the induced status. […] A minimum of 4 doses with at least 8 rats per dose are utilized in the quantification study.

harmaline-induced tremor = test: Harmaline-induced tremor assay; assay type: in vivo, ICR mice; conditions: mice, harmaline 30 mg/kg s.c.; oral doses noted; p<0.05; mpk=mg/kg
Excerpt: The harmaline-induced tremor assay is the primary preclinical model of induced tremor. Male ICR mice (10 weeks old) were used in this study. Mice were group housed in OPTI mouse ventilated cages. All animals remained group housed during the duration of the study. All mice were acclimated to the colony room for at least one week prior to testing. During the period of acclimation, mice were examined on a regular basis, handled, and weighed to assure adequate health and suitability. Mice were maintained on a 12/12 light/dark cycle. The room temperature was maintained between 20 and 23° C. with a relative humidity maintained between 30% and 70%. Chow and water were provided ad libitum for the duration of the study. In each test, animals were randomly assigned across treatment groups. Ten mice were tested in each group. […] After habituation, tremor activity of the mice was measured for approximately 8 min. The recorded frequencies (1-64 Hz) of activity and the number of tremor events were captured electronically. Data were analyzed by the tremor monitor software (San Diego Instruments) in a two part process. Using a Fast Fourier Transform (FFT), an output is provided showing the percentage of activity (energy) recorded at each frequency. […] Data were analyzed by analysis of variance (ANOVA) followed by Fisher PLSD post-hoc analysis. […]

`O=C(Nc1cn(Cc2c(F)cccc2F)nn1)[C@@H]1COCCN1` [Compound 3c, (3S)—N-{1-[(2,6-difluorophenyl)methyl]-1H-1,2,3-triazol-4-yl}morpholine-3-carboxamide] was tested, and the “active at (dose)” value [1] was “active at 50 mpk”.

With `Fc1cccc(F)c1Cn1cc(N2CCCC2)nn1` [Compound 10f, 1-[(2,6-difluorophenyl)methyl]-4-(pyrrolidin-1-yl)-1H-1,2,3-triazole] the “Dose at which activity was shown” value [2] was 65 mpk.

With `Fc1cccc(F)c1Cn1cc(N2CCOCC2)nn1` [Compound 10a, 4-{1-[(2,6-difluorophenyl)methyl]-1H-1,2,3-triazol-4-yl}morpholine] the ED50 [1] was “ED50 32 mpk” and the “Dose at which activity was shown” value [2] was 65 mpk.

For `O=C1OCCN1c1cn(Cc2c(F)cccc2F)nn1` [Compound 15a, 3-{1-[(2,6-difluorophenyl)methyl]-1H-1,2,3-triazol-4-yl}-1,3-oxazolidin-2-one], the “Dose showing significant reductions in total tremors” value (harmaline-induced tremor) was 50 mpk.

With `O=C1CCCN1c1cn(Cc2c(F)cccc2F)nn1` [Compound 14a, 1-{1-[(2,6-difluorophenyl)methyl]-1H-1,2,3-triazol-4-yl}pyrrolidin-2-one] the “Dose showing significant reductions in total tremors” value (harmaline-induced tremor) was 50 mpk.

For `N[C@@H](Cc1ccccc1)C(=O)Nc1cn(Cc2c(F)cccc2F)nn1` [Compound 3a, (2S)-2-amino-N-{1-[(2,6-difluorophenyl)methyl]-1H-1,2,3-triazol-4-yl}-3-phenylpropanamide], the “active at (dose)” value [1] was “active at 200 mpk” and the “Dose at which activity was shown” value [2] was 200 mpk.

With `CN(C)c1cn(Cc2c(F)cccc2F)nn1` [Compound 8a, [1-(2,6-difluoro-benzyl)-1H-[1,2,3]triazol-4-yl]-dimethyl-amine] the ED50 [1] was “ED50 25 mpk” and the “Dose at which activity was shown” value [2] was 65 mpk.

In the case of `O=C(Nc1cn(Cc2c(F)cccc2F)nn1)[C@H]1COCCN1` [Compound 3d, (3R)—N-{1-[(2,6-difluorophenyl)methyl]-1H-1,2,3-triazol-4-yl}morpholine-3-carboxamide], the ED50 [1] is reported as “ED50 79 mpk” and the “Dose at which activity was shown” value [2] is reported as 450 mpk.

In the case of `O=C1NCCN1c1cn(Cc2c(F)cccc2F)nn1` [Compound 16a, 1-{1-[(2,6-difluorophenyl)methyl]-1H-1,2,3-triazol-4-yl}imidazolidin-2-one], the “active at (dose)” value [1] is reported as “active at 100 mpk”.
